Measurements as given in patent US8865734B2 (priority 2010, dated 2014).
Converted amounts (≈) assume the structure as drawn.

Tests used:
[1] = system: in vitro grown Mycobacteria (M. tuberculosis); test: QUM: Quantification of in vitro grown Mycobacteria (in vitro growth fluorescence assay); type: cell-based; conditions: Mycobacterium tuberculosis; MIC, 80% bacterial growth inhibition; in vitro growth; read-out: QUM
How it was run: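 Mycobacterium tuberculosis grown in vitro was quantified by fluorescence across compound dose responses. MIC is defined as the minimum concentration producing 80% growth inhibition.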

[2] = system: M. tuberculosis inside the host macrophage; test: QIM: Quantification of Intracellular Mycobacteria (intracellular growth assay, phenotypic cell-based); conditions: Mycobacterium tuberculosis; MIC, 80% bacterial growth inhibition; intracellular growth; read-out: QIM
How it was run: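 Dose-response testing of intracellular mycobacterial replication in infected macrophages, a cell-based screening format; MIC is defined as the lowest concentration achieving 80% inhibition of bacterial growth.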

Compound	melting point	MIC [1]	MIC [2]
CCc1nc2cc(-c3cccnc3)ccn2c1C(=O)NCc1ccc(N2CCOCC2)cc1 [Compound 326, 2-Ethyl-N-(4-morpholinobenzyl)-7-(pyridin-3-yl)imidazo[1,2-a]pyridine-3-carboxamide]	208.5 °C	> 20 µM	> 20 µM
CCc1nc2ccc(Cl)cn2c1C(=O)OCc1ccc(Oc2ccccc2)cc1 [Compound 196, 4-Phenoxybenzyl 6-chloro-2-ethylimidazo[1,2-a]pyridine-3-carboxylate]	123.3 to 123.8 °C	1 to 20 µM (≈ 0.407 to 8.14 µg/mL)	< 1 µM
CCc1nc2ccc(Cl)cn2c1COc1ccc(OC(F)(F)F)cc1 [Compound 239, 6-Chloro-2-ethyl-3-((4-(trifluoromethoxy)phenoxy)methyl)imidazo[1,2-a]pyridine]	127 to 128 °C	> 20 µM	> 20 µM
CCc1nc2cc(Cl)ccn2c1C(=O)NCc1ccc(N2CCC(COC)CC2)cc1 [Compound 282, 7-Chloro-2-ethyl-N-(4-(4-(methoxymethyl)piperidin-1-yl)benzyl)imidazo[1,2-a]pyridine-3-carboxamide]	172.5 °C	< 1 µM	< 1 µM
CCc1nc2cc(Cl)ccn2c1C(=O)NCc1ccc(N2CC(C)CC(C)C2)cc1 (stereo not drawn) [Compound 217, 7-Chloro-N-(4-(3,5-dimethylpiperidin-1-yl)benzyl)-2-ethylimidazo[1,2-a]pyridine-3-carboxamide]	181.5 to 182.8 °C	< 1 µM	< 1 µM
CCc1nc2ccc(Cl)cn2c1C(=O)NCc1ccc(Oc2ccc(Cl)cc2)cc1 [Compound 190, 6-Chloro-N-(4-(4-chlorophenoxy)benzyl)-2-ethylimidazo[1,2-a]pyridine-3-carboxamide]	159 to 160.7 °C	< 1 µM	< 1 µM
CCc1nc2ccc(Cl)cn2c1C(=O)NCc1ccc(N2CCC(c3ccc(F)cc3)CC2)cc1 [Compound 286, 6-Chloro-2-ethyl-N-(4-(4-(4-fluorophenyl)piperidin-1-yl)benzyl)imidazo[1,2-a]pyridine-3-carboxamide]	164 °C	< 1 µM	< 1 µM
CCc1nc2c[n+]([O-])ccn2c1C(=O)NCc1ccc(-c2ccc(Cl)cc2)cc1 [Compound 160, 3-(((4′-Chloro-[1,1′-biphenyl]-4-yl)methyl)carbamoyl)-2-ethylimidazo[1,2-a]pyrazine 7-oxide]	238 °C	> 20 µM	> 20 µM
CCc1nc2cc(Br)ccn2c1C(=O)NCc1ccc(N2CCOCC2)cc1 [Compound 324, 7-Bromo-2-ethyl-N-(4-morpholinobenzyl)imidazo[1,2-a]pyridine-3-carboxamide]	202.6 °C	< 1 µM	< 1 µM
CCc1nc2cc(Cl)ccn2c1C(=O)NCC1CCN(Cc2ccc(OC(F)(F)F)cc2)CC1 [Compound 228, 7-Chloro-2-ethyl-N-((1-(4-(trifluoromethoxy)benzyl)piperidin-4-yl)methyl)imidazo[1,2-a]pyridine-3-carboxamide]	145 to 146 °C	> 20 µM	> 20 µM
CCc1nc2cc(Cl)ccn2c1C(=O)NCc1ccc(C(F)(F)F)cc1 [Compound 148, 7-Chloro-2-ethyl-N-(4-(trifluoromethyl)benzyl)imidazo[1,2-a]pyridine-3-carboxamide]	196.2 to 196.9 °C	< 1 µM	< 1 µM
CCc1nc2cc(Cl)ccn2c1C(=O)NCc1ccc(N2CCC(O)CC2)cc1 [Compound 218, 7-Chloro-2-ethyl-N-(4-(4-hydroxypiperidin-1-yl)benzyl)imidazo[1,2-a]pyridine-3-carboxamide]	179.1 to 180 °C	< 1 µM	> 20 µM
CCc1nc2cc(Br)ccn2c1C(=O)NCc1ccc(N2CCN(c3ccc(F)cc3)CC2)cc1 [Compound 311, 7-Bromo-2-ethyl-N-(4-(4-(4-fluorophenyl)piperazin-1-yl)benzyl)imidazo[1,2-a]pyridine-3-carboxamide]	214.6 °C	< 1 µM	< 1 µM
CCc1nc2ccc(Cl)cn2c1C(=O)NCc1ccc(N2CCC3CCCCC3C2)cc1 (stereo not drawn) [Compound 267, 6-Chloro-2-ethyl-N-(4-(octahydroisoquinolin-2(1H)-yl)benzyl)imidazo[1,2-a]pyridine-3-carboxamide]	141.7 °C	< 1 µM	< 1 µM
CCc1nc2ccc(Br)cn2c1C(=O)NCc1ccc(N2CCOCC2)cc1 [Compound 315, 6-Bromo-2-ethyl-N-(4-morpholinobenzyl)imidazo[1,2-a]pyridine-3-carboxamide]	228.2 °C	< 1 µM	< 1 µM
CCc1nc2cc(Cl)ccn2c1C(=O)NCc1ccc(N2C=CC(=O)CC2)cc1 [Compound 270, 7-Chloro-2-ethyl-N-(4-(4-oxo-3,4-dihydropyridin-1(2H)-yl)benzyl)imidazo[1,2-a]pyridine-3-carboxamide]	201.3 to 202.8 °C	> 20 µM	> 20 µM
CCc1nc2ccccn2c1C(=O)NCc1ccc(N2CCN(c3ccc(OC(F)(F)F)cc3)CC2)cc1 [Compound 181, 2-Ethyl-N-(4-(4-(4-(trifluoromethoxy)phenyl)piperazin-1-yl)benzyl)imidazo[1,2-a]pyridine-3-carboxamide]	178 to 179 °C	< 1 µM	< 1 µM
CCc1nc2cc(-c3ccncc3)ccn2c1C(=O)NCc1ccc(N2CCOCC2)cc1 [Compound 325, 2-Ethyl-N-(4-morpholinobenzyl)-7-(pyridin-4-yl)imidazo[1,2-a]pyridine-3-carboxamide]	210.1 °C	> 20 µM	> 20 µM
CCc1nc2cc(Cl)ccn2c1C(=O)NCc1ccc(NCc2ccc(OC(F)(F)F)cc2)cc1 [Compound 262]	169.6 °C	< 1 µM	< 1 µM
CCc1nc2ccc(Cl)cn2c1-c1nc(Cc2ccc(OC(F)(F)F)cc2)no1 [Compound 243, 5-(6-Chloro-2-ethylimidazo[1,2-a]pyridin-3-yl)-3-(4-(trifluoromethoxy)benzyl)-1,2,4-oxadiazole]	146.4 to 146.9 °C	> 20 µM	> 20 µM
CCc1nc2ccc(Cl)cn2c1C(=O)NCc1ccc(N2CCCC2)cc1 [Compound 211, 6-Chloro-2-ethyl-N-(4-(pyrrolidin-1-yl)benzyl)imidazo[1,2-a]pyridine-3-carboxamide]	222 to 223 °C	< 1 µM	< 1 µM
CCc1nc2cc(Cl)ccn2c1C(=O)NCc1ccc(N2CCCCC2C)cc1 (stereo not drawn) [Compound 273, 7-chloro-2-ethyl-N-(4-(2-methylpiperidin-1-yl)benzyl)imidazo[1,2-a]pyridine-3-carboxamide]	117.9 °C	< 1 µM	< 1 µM
CCc1nc2ccc(Cl)cn2c1C(=O)NCc1ccc(N2CCN(c3ccc(OC(F)(F)F)cc3)CC2)cc1 [Compound 178, 6-Chloro-2-ethyl-N-(4-(4-(4-(trifluoromethoxy)phenyl)piperazin-1-yl)benzyl)imidazo[1,2-a]pyridine-3-carboxamide]	206.5 to 207 °C	< 1 µM	< 1 µM
